“And” between values parts separate entries of the source, which are not always exact repeats. Equal entries are not always repeated.
What was measured:
wild-type plants = details: plants not expressing D-amino acid oxidase; cited from earlier work
[1] = tested on: immature embryos / embryogenic callus from Golden Promise; assay: Agrobacterium-mediated barley transformation with pRLM167 or pRLM205 (dsdA, dao1, PAT), PAB media, selection on D-Serine or bialaphos; type: cell-based, barley (Hordeum vulgare L.)
[2] = tested on: immature embryos from spring barley variety Golden Promise; assay: In vitro germination bioassay of immature embryos on medium with D-serine or D-alanine; type: cell-based, barley (Hordeum vulgare L.); details: for Immature Embryos (%) germinated in vitro: scored after 14 days; for concentration lethal in the bioassay: immature embryo germination; for concentration above which seedlings were susceptible to the selection: seedlings from embryos isolated without endosperms
Protocol: In order to establish effective concentrations of D-Serine and D-Alanine on inhibiting growth of tissue cultured barley cells, a bioassay system using immature embryos was applied. Immature embryos from spring barley variety Golden Promise 2 mm in length were dissected onto germination PAW-5 hormone free medium with D-serine or D-alanine in range of concentrations between 0 and 5 mM and maintained at 25° C. with a 16 h photoperiod. The number of germinated embryos with well-developed shoots and brunched roots were scored after 14 days.

[3] = tested on: immature embryos / embryogenic callus from Golden Promise; assay: Agrobacterium-mediated barley transformation with pRLM166 (dsdA), PAW media, selection on D-Serine; type: cell-based, barley (Hordeum vulgare L.); details: construct pRLM166, selection 5 mM D-Serine
[4] = construct pRLM167, selection 5 mM D-Serine or 5 mg/l bialaphos
[5] = 0.5 mM in PAW-5 hormone free medium
[6] = 1 mM in PAW-5 hormone free medium
[7] = 2 mM in PAW-5 hormone free medium
[8] = 5 mM in PAW-5 hormone free medium

Structure (SMILES)	toxicity to wild-type plants (wild-type plants)	TE % (Transformation Efficiency, % of transgenic plants out of the explants) [1, 4] [%]	TE % (Transformation Efficiency, % of transgenic plants out of the explants) ([1]; construct pRLM205 (dao1), selection 5 mM D-Serine) [%]	Immature Embryos (%) germinated in vitro [2, 5] [%]	Immature Embryos (%) germinated in vitro [2, 6] [%]	Immature Embryos (%) germinated in vitro [2, 7] [%]	Immature Embryos (%) germinated in vitro [2, 8] [%]	concentration lethal in the bioassay [2] [mM]	concentration above which seedlings were susceptible to the selection [2]	TE % (Transformation Efficiency, % of transgenic plants out of the explants) [3]
CC(C)[C@@H](N)C(=O)O [D-valine]	not toxic to wild-type plants									
N[C@H](CO)C(=O)O [D-serine]	highly phytoptoxic to plants	4.6	3.6	49	17	0	0	2	higher than 2 mM	2.2% and 2.1%
CC[C@@H](C)[C@@H](N)C(=O)O [D-isoleucine]	not toxic to wild-type plants									
C[C@H](NC(=O)[C@H](C)NC(=O)[C@@H](N)CCP(C)(=O)O)C(=O)O [bialaphos]		3.4								
C[C@@H](N)C(=O)O [D-alanine]	highly phytoptoxic to plants			37	0	0	0	1	> 1 mM	

Reference: patent US20090300800A1, “D-Amino Acid a Selectable Marker for Barley (Hordeum Vulgare L.) Transformation” (BASF Plant Science GmbH, priority 2005, published 2009)
